Measured values taken from patent publication US9782368B2, “Use of N,N-bis-2-mercaptoethyl isophthalamide” (EMERAMED LIMITED, priority 2014, dated 2017).

Tests used:
[1] = Ascorbate depletion assay, 9,10-PQ-sponsored oxidation, recycling of DHA; settings: 9,10-PQ model, 200 μM added at 60 minutes
Method: (§1) The kinetics of ascorbate oxidation, sponsored by both 1 μM 9,10-PQ and 2 μM copper sulphate (CuSO4), was examined using the ascorbate depletion assay (Kelly et al, Res. Rep. Health Eff. Inst., 163, 3 (2011). 9,10-PQ was employed so that the action of NBMI could be examined in isolation of its chelation properties.
(§2) All experiments were performed in triplicate in UV 96 well flat-bottomed plates (Greiner bio-one) at a final volume of 200 μL. Exposures were initiated by the addition of 20 μL of a concentrated stock of ascorbate (2 mM) into each well containing 160 μL of Chelex-100 resin treated water (containing 10% DMSO), plus either 10 μL of water, CuSO4 stock solution at 4 mM or 9,10-PQ stock solution at 2 mM, and 10 μL of NMBI (4 mM and […]).
(§3) All solutions were prepared in Chelex-100 resin treated water (containing 10% DMSO). This yielded final concentrations in the wells of […], 2 μM CuSO4, or 1 μM 9,10-PQ and between 10 and 200 μM of NBMI.
(§4) Immediately prior to the addition of the ascorbate to each assay well, the plate was pre-incubated for 10 minutes at 37° C. in a plate reader (Spectra Max 190). During the exposure, the plate was maintained at this temperature. After addition of ascorbate, the concentration remaining in each well was monitored every 2 minutes for a period of two hours by measuring the absorbance at 265 nm. The ascorbate concentration was determined with reference to a standard curve, with the rate of ascorbate oxidation determined by performing a linear regression through the initial part of a concentration verses time plot using Microcal Software Limited's OriginLab (version 5.0). This was performed for each of the triplicates and the rate of ascorbate depletion was finally expressed as mean mol s 1×10^−9 depletion of ascorbate±standard deviation.
(§5) For the experiments in which the impact of adding NBMI to the ascorbate was measured, CuSO4 and 9,10-PQ depletion assays were examined later in the time course. The plates were ran with 190 μL only for the first 55-60 minutes, after which they were removed from the plate reader and 10 μL of either the NMBI or the known reducing agent, DTT stock solution, or water was added to each well. The plate was then returned to the plate reader and the absorbance at 265 nm monitored for a further 60 minutes.
(§6) The immediate increase in the measured ascorbate concentrations was determined and is referred to as the ‘jump’, as a measure of immediate recycling capacity. The sustained ‘increase’ over the remaining 60 minutes of the incubation was also determined.

[2] = Ascorbate depletion assay, CuSO4-sponsored oxidation, recycling of DHA; settings: CuSO4 model, 200 μM added at 60 minutes
Method: as §1, §2, §3, §4, §5, §6

[3] = tested on: IL-6 and IL-8 secretion in A549 cells; assay: Particle-induced secretion of pro-inflammatory cytokines (ELISA) in A549 cells; assay type: cell-based; settings: pre-incubation 5 mM NAC (positive control); cell line not specified (A549 and BEAS-2B tested)
Method: Secretion of the pro-inflammatory cytokines interleukin (IL)-6, IL-8 (as well as GM-CSF and MCP-1) into cell media in response to particle exposure was measured in A549 and BEAS-2B cells using the following method.
Lung epithelial cells were seeded at 5×10^4 in 24-well plates. After pre-incubation with NBMI, the anti-oxidant compound, N-acetyl-L-cysteine (NAC), which was used as a positive control, or vehicle, for 3 hours the medium was removed.
Fresh media containing various particles (as below) in different concentrations was in a total volume of 0.5 ml for an additional 24 hours. The supernatants were then separated from the cells by centrifugation.
IL-8, IL-6, GM-CSF and MCP-1 were measured in the cell free fluid using the DuoSet ELISA Development kit (R&D Systems, Abingdon, UK) according to manufacturer's protocol.
Exposure to medium only served as negative control. Each experiment was performed twice with 4 replicates.
The effect of pre-incubation with 50 μM NBMI on particle-induced cytokine formation was tested at various concentrations of relevant particles.

Row | sustained 'increase' in ascorbate over remaining 60 minutes [2] [µM] | Compound | immediate rebound increase in ascorbate [1] [µM] | whether recovery of ascorbate was sustained [1] | immediate 'jump' in ascorbate concentration [2] [µM] | reduction of secretion of inflammatory cytokines [3]
1 | 10.79 ± 2.45 | O[C@H](CS)[C@H](O)CS (racemic) [DTT, dithiothreitol, reference compound] | 5.1 | not sustained | 7.93 ± 6.58 | –
2 | – | CC(=O)N[C@@H](CS)C(=O)O [NAC, N-acetyl-L-cysteine, reference compound] | – | – | – | effective in reducing the secretion of inflammatory cytokines
